Assay results taken from patent US20150352075A1, “Treatment of Alzheimer's and Cognitive Impairment With Andrographolides” (INNOBIOSCIENCE, LLC, priority 2013, published 2015).
Where two headings read alike, the source gives them in different places.

How the values were obtained:
[1] = molecular target: T1, Immunoprecipitated GSK-3β from hippocampus of wild-type mice (Mus musculus, UniProt Q9WV60); assay: Luminometric GSK-3β activity assay; type: biochemical
T1 construct: the hippocampus of two month-old wild-type mice were lysed in immunoprecipitation buffer; from tissue; host or cells: hippocampus of two-month-old wild-type mice (immunoprecipitated with anti-GSK-3β antibody, Santa Cruz)
T1 sequence (Q9WV60 whole entry): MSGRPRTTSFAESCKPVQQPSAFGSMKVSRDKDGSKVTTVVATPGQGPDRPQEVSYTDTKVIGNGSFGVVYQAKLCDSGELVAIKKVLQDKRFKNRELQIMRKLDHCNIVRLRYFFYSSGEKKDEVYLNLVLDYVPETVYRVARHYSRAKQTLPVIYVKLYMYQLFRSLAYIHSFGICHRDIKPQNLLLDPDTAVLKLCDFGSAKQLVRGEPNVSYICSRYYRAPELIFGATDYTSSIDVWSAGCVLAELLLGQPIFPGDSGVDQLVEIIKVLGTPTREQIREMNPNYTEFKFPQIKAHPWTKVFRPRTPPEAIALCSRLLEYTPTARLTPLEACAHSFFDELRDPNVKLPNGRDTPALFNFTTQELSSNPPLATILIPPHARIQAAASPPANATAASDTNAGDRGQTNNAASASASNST
Description: The immunoprecipitation was performed as previously described (Garrido et al, 2002). Briefly, the hippocampus of two month-old wild-type mice were lysed in immunoprecipitation buffer (25 mM HEPES pH 7.4, 125 mMNaCl, 25 mMNaF, 1 mM EDTA, 1 mM EGTA, 1% NP-40) including phosphatase inhibitors (1 mM NaVO3 and 200 nM okadaic acid) and the protease inhibitor cocktail described above. 200 μg of total proteins from lysate were precleared by using protein G-Sepharose beads (Santa Cruz Biotechnology) for 1 h at 4° C. and then were incubated with anti-GSK-3β antibody (Santa Cruz Biotechnology) and new protein G beads for 4 h at 4° C. The immunocomplexes were finally pelleted and washed three times with cold immunoprecipitation buffer.
IC50 of ANDRO was determined by a luminometric GSK-3β activity assay. […] Briefly, ANDRO was tested at different concentrations and diluted in kinase buffer containing final concentrations of: 40 mM Tris pH 7.5; 20 mM MgCl2; 0.1 mg/ml BSA. […] The enzymatic reaction was stopped after 10 min of incubation to room temperature by adding 50 μl Kinase Glo (Promega, Madison, USA). The luminometric signal was allowed to stabilize for 10 min and the measured with a Luminometer TURNER DESIGNS model TD-2020.

[2] = test system: dentate gyrus of wild-type mice; assay: Adult hippocampal neurogenesis (Ki67, DCX immunofluorescence); type: in vivo
Description: Animals. Two-month-old C57BC6 wild-type mice were treated and handled according to National Institutes of Health guidelines (NIH, […], Md.). The treatments were performed by intraperitoneal (ip) injection of 2.0 mg/kg ANDRO and wild-type control animals were injected only with saline solution as vehicle.
Mice were anesthetized (100 μg ketamine+10 μg xylazine in […] saline/g), and then transcardially perfused with saline, followed by 4% paraformaldehyde (PFA) in 0.1M PBS. The brains were removed and incubated in PBS-4% PFA for 24 h at room temperature, dehydrated in 30% sucrose and kept at 4° C. until analysis.
After dehydration, each mouse brain was sectioned on a cryostate in 12 sets of serial coronal sections of […] thickness (Leica Microsystems, Wetzlar, Germany) and collected in ice-cold-PBS in multiwell dishes.Each set contained 5-7 sections covering the entire length of the hippocampus.
Sections were washed with PBS 3 times for 5 min and then incubated in blocking solution (3% donkey serum, 3% BSA, 0.5% Triton X-100 in PBS) for 4 h. Then, tissues were incubated overnight with primary antibodies at 4° C. Primary antibodies used were: rabbit anti-Ki67 (Abcam), rabbit anti-DCX (Cell Signaling Technology Inc., Beverly, Mass., USA), monoclonal anti-NeuN (Millipore, Billerica, Mass., USA). After washing 3 times with 0.5% Triton X-100 PBS, sections were incubated with Dy Light (Abcam) conjugated secondary antibodies for 2 h at room temperature. […] For quantification, Ki67 positive cells were countedusing a fluorescence microscope (Olympus BX51, Tokyo, Japan). Cells were counted in all sections of one set (see tissue sectioning). Total cells counted in one set were multiplied by the total number of sets to obtain an estimation of the total number of Ki67+ cells in the complete hippocampus. For quantification of the % area covered by DCX, double labeling DCX/NeuN was carried. […] Images shown were analyzed by confocal laser microscopy (Olympus FV 1000) and z-projections were generated with ImageJ software.

[3] = 2-month-old mice, 2 mg/kg i.p. 3 times per week for 4 weeks

C=C1CC[C@@H]2C(C)(CO)C(O)CC[C@@]2(C)C1C/C=C1/C(=O)OCC1O (stereo in doubt) [ANDRO, 3-(2-(Decahydro-6-hydroxy-5-(hydroxymethyl)-5,8a-dimethyl-2-methylenenaphthyl)ethylidene)dihydro-4-hydroxyfuran-2(3H)-one]
IC50 ([1]; 25 μM pGS-2 peptide substrate, 10 μM ATP, preincubation 10 min, read-out: inhibition constant (IC50) of GSK-3β activity): 5.58 µM | GSK-3β inhibition in the presence of DTT ([1]; 0.5 mM DTT): neither prevents the inhibition generated by ANDRO | IC50 ([1]; different concentrations of ATP, read-out: IC50 using different concentrations of ATP): ~5.58 µM | IC50 at increased substrate concentration ([1]; different concentrations of the substrate): increase in the IC50 of ANDRO | percentage of the granular cell layer covered by DCX staining [2, 3]: significantly increased | total number of Ki67+ cells in the SGZ [2, 3]: significantly increased the total number of Ki67^+ cells | morphology of DCX+ cells ([2]; compared to control mice): more complex morphology
